According to ChEMBL document CHEMBL6087426, “Design, synthesis and bioactivity evaluation of cinnamic acid derivatives as potential anti-inflammatory agents against LPS-induced acute lung injury” (Bioorg Med Chem Lett, 2025):
Active and inactive are the calls of the source. No cut-off for these calls is given here.

Legend:
J774.A1 [1] = test: Anti-inflammatory activity against mouse J774.A1 cells assessed as inhibition of LPS-induced IL-6 production at 10 uM preincubated for 30 mins followed by LPS stimulation for 24 hrs by ELISA relative to control; format: functional; conditions: time 24.5 hrs
Mus musculus [2] = test: Anti-inflammatory activity in C57BL/6 mouse assessed as decrease in LPS-induced thickened alveolar septa in lung tissue at 20 mg/kg pretreated for 30 mins followed by LPS stimulation for 6 hrs by H and E staining based analysis; format: functional, organism-based; conditions: time 6.5 hrs
J774.A1 [3] = test: Anti-inflammatory activity against mouse J774.A1 cells assessed as inhibition of LPS-induced IL-6 production preincubated for 30 mins followed by LPS stimulation for 24 hrs by ELISA; format: functional, cell-based
Mus musculus [4] = test: Anti-inflammatory activity in C57BL/6 mouse assessed as decrease in LPS-induced pulmonary congestion in lung tissue at 20 mg/kg pretreated for 30 mins followed by LPS stimulation for 6 hrs by H and E staining based analysis; format: functional, organism-based; conditions: time 6.5 hrs
Mus musculus [5] = test: Anti-inflammatory activity in C57BL/6 mouse assessed as decrease in LPS-induced IL-6 level in serum at 20 mg/kg pretreated for 30 mins followed by LPS stimulation for 6 hrs by ELISA; format: functional, organism-based; conditions: time 6.5 hrs
Mus musculus [6] = test: Anti-inflammatory activity in C57BL/6 mouse assessed as decrease in LPS-induced destruction in lung tissue at 20 mg/kg pretreated for 30 mins followed by LPS stimulation for 6 hrs by H and E staining based analysis; format: functional, organism-based; conditions: time 6.5 hrs
Mus musculus [7] = test: Anti-inflammatory activity in C57BL/6 mouse assessed as decrease in LPS-induced interstitial edema in lung tissue at 20 mg/kg pretreated for 30 mins followed by LPS stimulation for 6 hrs by H and E staining based analysis; format: functional, organism-based; conditions: time 6.5 hrs
Mus musculus [8] = test: Anti-inflammatory activity in C57BL/6 mouse assessed as decrease in LPS-induced total protein level in BALF at 20 mg/kg pretreated for 30 mins followed by LPS stimulation for 6 hrs; format: functional, organism-based; conditions: time 6.5 hrs
J774.A1 [9] = test: Cytotoxicity against mouse J774.A1 cells assessed as cell survival at 10 uM by MTT assay; format: toxicity, cell-based; conditions: j774.a1, 10 µM
Mus musculus [10] = test: Anti-inflammatory activity in C57BL/6 mouse assessed as decrease in LPS-induced macrophage infiltration in lung tissue at 20 mg/kg pretreated for 30 mins followed by LPS stimulation for 6 hrs by IHC analysis; format: functional, organism-based; conditions: time 6.5 hrs
Mus musculus [11] = test: Anti-inflammatory activity in C57BL/6 mouse assessed as decrease in LPS-induced TNF-alpha level in BALF at 20 mg/kg pretreated for 30 mins followed by LPS stimulation for 6 hrs by ELISA; format: functional, organism-based; conditions: time 6.5 hrs
Mus musculus [12] = test: Anti-inflammatory activity in C57BL/6 mouse assessed as decrease in LPS-induced IL-6 level in BALF at 20 mg/kg pretreated for 30 mins followed by LPS stimulation for 6 hrs by ELISA; format: functional, organism-based; conditions: time 6.5 hrs
Mus musculus [13] = test: Anti-inflammatory activity in C57BL/6 mouse assessed as decrease in LPS-induced inflammatory infiltration in lung tissue at 20 mg/kg pretreated for 30 mins followed by LPS stimulation for 6 hrs by H and E staining based analysis; format: functional, organism-based; conditions: time 6.5 hrs
Mus musculus [14] = test: Anti-inflammatory activity in C57BL/6 mouse assessed as decrease in LPS-induced wet to dry ratio in lung tissue at 20 mg/kg pretreated for 30 mins followed by LPS stimulation for 6 hrs; format: functional, organism-based; conditions: time 6.5 hrs
Mus musculus [15] = test: Anti-inflammatory activity in C57BL/6 mouse assessed as decrease in LPS-induced TNF-alpha level in serum at 20 mg/kg pretreated for 30 mins followed by LPS stimulation for 6 hrs by ELISA; format: functional, organism-based; conditions: time 6.5 hrs

## O=C(/C=C/c1ccccc1)Nc1ncc(-c2cccc([N+](=O)[O-])c2)s1
J774.A1 [1]
  inhibition at 10 µM: 36.5%

## COc1ccc(-c2csc(NC(=O)c3ccccc3C)n2)cc1OC
J774.A1 [1]
  inhibition at 10 µM: 36.8%

## O=C(/C=C/c1ccccc1)Nc1nc2ccccc2s1
Mus musculus [2]
  Activity: Active
J774.A1 [3]
  IC50: 1060 nM
J774.A1 [3]; dose 1.25-10 µM, time 24.5 hrs
  inhibition: Dose-dependent-effect
Mus musculus [4]
  Activity: Active
Mus musculus [5]
  Activity: Active
Mus musculus [6]
  Activity: Active
Mus musculus [7]
  Activity: Active
Mus musculus [8]
  Activity: Active
J774.A1 [9]
  Activity: Non-toxic
Mus musculus [10]
  Activity: Active
Mus musculus [11]
  Activity: Active
Mus musculus [12]
  Activity: Active
Mus musculus [13]
  Activity: Active
Mus musculus [14]
  Activity: Active
J774.A1 [1]
  inhibition at 10 µM: 79.6%
Mus musculus [15]
  Activity: Active

## COc1ccc(-c2csc(NC(=O)c3ccc(Cl)c([N+](=O)[O-])c3)n2)cc1OC
J774.A1 [9]
  Activity: Toxic
J774.A1 [1]
  inhibition at 10 µM: 64.1%

## CCOc1ccc(-c2cnc(NC(=O)/C=C/c3ccccc3)s2)cc1
J774.A1 [1]
  inhibition at 10 µM: 37.6%

## COc1ccc(-c2csc(NC(=O)c3cccc(F)c3)n2)cc1OC
J774.A1 [1]
  inhibition at 10 µM: 19.5%

## O=C(/C=C/c1ccccc1)Nc1ncc(-c2ccc(Br)cc2)s1
J774.A1 [1]
  inhibition at 10 µM: 21.6%

## COc1ccc(-c2csc(NC(=O)c3cccc(Br)c3)n2)cc1OC
J774.A1 [1]
  inhibition at 10 µM: 19.8%

## COc1ccc(-c2csc(NC(=O)c3ccc(C)cc3)n2)cc1OC
J774.A1 [1]
  inhibition at 10 µM: 38.8%

## C[C@@H]1C[C@H]2[C@@H]3CCC4=CC(=O)C=C[C@]4(C)[C@@]3(F)[C@@H](O)C[C@]2(C)[C@@]1(O)C(=O)CO
Mus musculus [5]
  Activity: Active
Mus musculus [8]
  Activity: Active
Mus musculus [10]
  Activity: Active
Mus musculus [11]
  Activity: Active
Mus musculus [12]
  Activity: Active
Mus musculus [14]
  Activity: Active
Mus musculus [15]
  Activity: Active

## COc1cc(-c2cnc(NC(=O)/C=C/c3ccccc3)s2)cc(OC)c1OC
J774.A1 [9]
  Activity: Non-toxic
J774.A1 [1]
  inhibition at 10 µM: 72.7%

## O=C(O)/C=C/c1ccccc1 [CINNAMIC ACID]
J774.A1 [1]
  inhibition at 10 µM: 26.4%

## COc1ccc(-c2csc(NC(=O)c3ccc(F)cc3)n2)cc1OC
J774.A1 [1]
  inhibition at 10 µM: 51.2%

## COc1ccc(-c2cnc(NC(=O)/C=C/c3ccccc3)s2)cc1OC
J774.A1 [1]
  inhibition at 10 µM: 53%

## O=C(/C=C/c1ccccc1)Nc1ncc(-c2ccc(C3CCCCC3)cc2)s1
J774.A1 [1]
  inhibition at 10 µM: 51.9%

## COc1ccc(-c2csc(NC(=O)c3ccc(F)cc3Cl)n2)cc1OC
J774.A1 [1]
  inhibition at 10 µM: 23.3%
